According to US11639350B2, “Heteroaryldihydropyrimidine derivatives and methods of treating hepatitis B infections” (Janssen Pharmaceutica NV, priority 2018, dated 2023):

Experiments:
HBV = HBV inhibitory activity: HBV DNA in the culture medium of HepG2.2.15 cells by q-PCR; type: cell-based; settings: Hepatitis B virus, HepG2.2.15, 144 h, HepG2.2.15 cells, 6 days of compound treatment, HBV DNA in culture medium by q-PCR, highest concentration 10 μM; read-out: EC50
Description: (§1) HBV replication inhibition by the compounds of this invention as well as cytotoxicity determination was determined in cells infected or transfected with HBV, or cells with stably integrated HBV, such as HepG2.2.15 cells (Sells et al. 1987). The method used herein is as follows.
(§2) The HepG2.2.15 cells were seeded into 96-well plate in 2% FBS (Fetal bovine serum) culture medium at the density of 40,000 cells/well and 5,000 cells/well for HBV inhibitory activity and cytotoxicity determination, respectively. After seeding, the cell plates were incubated at 37° C., 5% CO2 overnight. The next day, medium containing compounds were added to treat the cells for 6 days with medium refreshed once in the middle of the treatment. Eight dose points with 3 folds dilution of each compound were adopted and the highest concentration of the compounds was 10 μM and 100 μM for HBV inhibitory activity and cytotoxicity determination, respectively.
The HBV DAN change in the cell culture medium induced by the compounds was measured by q-PCR (quantitative polymerase chain reaction) method. The HBV DNA in the culture medium was extracted using QIAamp 96 DNA Blood Kit according to the manual and then quantified by q-PCR using the primers and probe in the table below: […]
(§3) EC50 and CC50 values are calculated by the GraphPad Prism software and are averages where multiple measurements were made. EC50 values for the other exemplified compounds were either not measured or higher than 1 μM.

[1] = Cytotoxicity determination in HepG2.2.15 cells (CCK-8); type: cell-based; settings: human, 6 days of compound treatment, CCK-8, highest concentration 100 μM
Description: as §1, §2
After 6 days of compounds treatment, 20 μl CCK-8 (Cell Counting Kit-8 (Tianjin Biolite company)) reagents were added to each well of cytotoxicity assay plates, the plate was incubated at 37° C., 5% CO2 for 2.5 hours and the absorbance at 450 nm wavelength was measured, at the same time the absorbance at 630 nm wavelength was read as reference.
as §3

Row | Compound | EC50 (HBV) | CC50 at 6 days [1]
1 | COC(=O)C1=C(C2COC2)NC(c2nccs2)=NC1c1ccc(F)cc1Cl (racemic) [Compound 217, Methyl 4-(2-chloro-4-fluorophenyl)-6-(oxetan-3-yl)-2-(thiazol-2-yl)-1,4-dihydropyrimidine-5-carboxylate] | 511 nM | 29600 nM
2 | COC(=O)C1=C([C@H]2CC[C@@H](NS(C)(=O)=O)CC2)NC(c2ncc(F)cc2F)=NC1c1ccc(F)cc1Cl (mixture of isomers) [Compound 399, (cis)-Methyl 4-(2-chloro-4-fluorophenyl)-2-(3,5-difluoropyridin-2-yl)-6-(4-(methylsulfonamido)cyclohexyl)-1,4-dihydropyrimidine-5-carboxylate] | 33 nM | 36800 nM
3 | CCOC(=O)C1=C([C@H]2C[C@@H](NS(C)(=O)=O)C2(C)C)NC(c2nccs2)=NC1c1ccc(F)cc1Cl (mixture of isomers) [Compound 437, (cis)-Ethyl 4-(2-chloro-4-fluorophenyl)-6-(2,2-dimethyl-3-(methylsulfonamido)cyclobutyl)-2-(thiazol-2-yl)-1,4-dihydropyrimidine-5-carboxylate] | 404 nM | 4000 nM
4 | CCOC(=O)C1=C([C@H]2CC[C@H](C(=O)OC)CC2)NC(c2nccs2)=NC1c1cccc(F)c1Cl (relative stereo) [Compound 22Y, Ethyl 4-(2-chloro-3-fluorophenyl)-6-(trans-4-(methoxycarbonyl)-cyclohexyl)-2-(thiazol-2-yl)-1,4-dihydropyrimidine-5-carboxylate] | 224 nM | 75900 nM
5 | CCOC(=O)C[C@H]1CC[C@H](C2=C(C(=O)OC)C(c3cccc(F)c3Cl)N=C(c3nccs3)N2)CC1 (relative stereo) [Compound 28, Methyl 4-(2-chloro-3-fluorophenyl)-6-(trans-4-(2-ethoxy-2-oxoethyl)-cyclohexyl)-2-(thiazol-2-yl)-1,4-dihydropyrimidine-5-carboxylate] | 407 nM | 49300 nM
6 | COC(=O)C1=C([C@H]2CC[C@H](CC(=O)O)CC2)NC(c2nccs2)=NC1c1cccc(F)c1Cl (relative stereo) [Compound 29, 2-(trans-4-(6-(2-Chloro-3-fluorophenyl)-5-(methoxycarbonyl)-2-(thiazol-2-yl)-3,6-dihydropyrimidin-4-yl)cyclohexyl)acetic Acid] | 123 nM | 33600 nM
7 | COC(=O)C1=C([C@H]2CC[C@@H](N(CC(=O)O)S(C)(=O)=O)CC2)NC(c2nccs2)=NC1c1ccc(F)cc1Cl (relative stereo) [Compound 135, 2-(N-(cis-4-(6-(2-chloro-4-fluorophenyl)-5-(methoxycarbonyl)-2-(thiazol-2-yl)-3,6-dihydropyrimidin-4-yl)cyclohexyl)methylsulfonamido)acetic Acid] | 346 nM | 62500 nM
8 | COC(=O)C1=C([C@H]2CC[C@H](N(CC(=O)O)S(C)(=O)=O)CC2)NC(c2nccs2)=NC1c1ccc(F)cc1Cl (relative stereo) [Compound 139, 2-(N-(trans-4-(6-(2-chloro-4-fluorophenyl)-5-(methoxycarbonyl)-2-(thiazol-2-yl)-3,6-dihydropyrimidin-4-yl)cyclohexyl)methylsulfonamido)acetic Acid] | 112 nM | 75600 nM
9 | COC(=O)C1=C(C2CCN(S(=O)(=O)[C@H]3C[C@H](C(=O)O)C3)CC2)NC(c2nccs2)=NC1c1ccc(F)c(F)c1Br (relative stereo) [Compound 162, trans-3-((4-(−6-(2-Bromo-3,4-difluorophenyl)-5-(methoxycarbonyl)-2-(thiazol-2-yl)-3,6-dihydropyrimidin-4-yl)piperidin-1-yl)sulfonyl)cyclobutanecarboxylic Acid] | 59 nM | 34500 nM
10 | COC(=O)C1=C([C@H]2C[C@@H](C)CO2)NC(c2nccs2)=NC1c1cccc(F)c1Cl (relative stereo) [Compound 171, (cis)-Methyl 4-(2-chloro-3-fluorophenyl)-6-(4-methyltetrahydrofuran-2-yl)-2-(thiazol-2-yl)-1,4-dihydropyrimidine-5-carboxylate] | 124 nM | 15500 nM
11 | COC(=O)C1=C([C@H]2CC[C@H](NS(=O)(=O)CCO)CC2)NC(c2nccs2)=NC1c1ccc(F)cc1Cl (relative stereo) [Compound 187B, (trans)-Methyl 4-(2-chloro-4-fluorophenyl)-6-(4-(2-hydroxyethylsulfonamido)cyclohexyl)-2-(thiazol-2-yl)-1,4-dihydropyrimidine-5-carboxylate] | 32 nM | 18900 nM
12 | COC(=O)C1=C([C@H]2C[C@@H](CO)CO2)NC(c2nccs2)=NC1c1cccc(F)c1Cl (relative stereo) [Compound 221, (cis)-Methyl 4-(2-chloro-3-fluorophenyl)-6-(4-(hydroxymethyl)tetrahydrofuran-2-yl)-2-(thiazol-2-yl)-1,4-dihydropyrimidine-5-carboxylate] | 53 nM | 47100 nM
13 | COC(=O)C1=C([C@H]2CC[C@H](C(=O)OC)CC2)NC(c2nccs2)=NC1c1ccc(F)cc1Br (relative stereo) [Compound 224, (trans)-Methyl 4-(2-bromo-4-fluorophenyl)-6-(4-(methoxycarbonyl)cyclohexyl)-2-(thiazol-2-yl)-1,4-dihydropyrimidine-5-carboxylate] | 71 nM | 28400 nM
14 | COC(=O)C1=C(C2CCN(S(=O)(=O)[C@H]3C[C@@H](C(=O)O)C3)CC2)NC(c2nccs2)=NC1c1ccc(F)c(F)c1Cl (relative stereo) [Compound 232D, (cis)-3-((4-(−6-(2-Chloro-3,4-difluorophenyl)-5-(methoxycarbonyl)-2-(thiazol-2-yl)-3,6-dihydropyrimidin-4-yl)piperidin-1-yl)sulfonyl)cyclobutanecarboxylic Acid] | 30 nM | 39600 nM
15 | COC(=O)C1=C([C@H]2CC[C@H](NS(N)(=O)=O)CC2)NC(c2nccs2)=NC1c1ccc(F)c(F)c1Cl (relative stereo) [Compound 238, (trans)-Methyl 4-(2-chloro-3,4-difluorophenyl)-6-(4-(sulfamoylamino)cyclohexyl)-2-(thiazol-2-yl)-1,4-dihydropyrimidine-5-carboxylate] | 53 nM | 13400 nM
16 | COC(=O)C1=C([C@H]2CC[C@H](NS(=O)(=O)CCCO)CC2)NC(c2nccs2)=NC1c1ccc(F)c(F)c1Cl (relative stereo) [Compound 253B, (trans)-Methyl 4-(2-chloro-3,4-difluorophenyl)-6-(4-(3-hydroxypropylsulfonamido)cyclohexyl)-2-(thiazol-2-yl)-1,4-dihydropyrimidine-5-carboxylate] | 8 nM | 13700 nM
17 | CCOC(=O)C1=C([C@@H]2C[C@H](NS(C)(=O)=O)CO2)NC(c2nccs2)=NC1c1cccc(F)c1Cl (relative stereo) [Compound 261, (cis)-Ethyl 4-(2-chloro-3-fluorophenyl)-6-(4-(methylsulfonamido)-tetrahydrofuran-2-yl)-2-(thiazol-2-yl)-1,4-dihydropyrimidine-5-carboxylate] | 142 nM | 37500 nM
18 | COC(=O)C1=C(C2CCCC(C(=O)O)CC2)NC(c2nccs2)=NC1c1ccc(F)cc1Cl (single isomer, unassigned) [Compound 95A, 4-(6-(2-Chloro-4-fluorophenyl)-5-(methoxycarbonyl)-2-(thiazol-2-yl)-3,6-dihydropyrimidin-4-yl)cycloheptanecarboxylic Acid] | 101 nM | 
